Measured values taken from PMC2669657 (Journal of the American Chemical Society, 2009).
Values belong to the molecule of their own block, whether it stands above or below them.

How the values were obtained:
[1] = molecular target: T1, human orotate phosphoribosyltransferase (HsOPRT), OPRT domain of UMP synthase (Homo sapiens, UniProt P11172); assay: steady-state kinetics; assay type: biochemical; conditions: read-out: OMP / Km
T1 sequence (P11172 2-245): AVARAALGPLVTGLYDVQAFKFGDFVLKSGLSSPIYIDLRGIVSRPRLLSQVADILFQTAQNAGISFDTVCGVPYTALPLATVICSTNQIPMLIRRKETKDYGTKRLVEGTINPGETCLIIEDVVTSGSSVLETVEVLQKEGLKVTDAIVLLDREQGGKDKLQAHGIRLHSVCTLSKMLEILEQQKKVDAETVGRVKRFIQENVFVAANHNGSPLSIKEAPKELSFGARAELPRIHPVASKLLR

[2] = molecular target: Plasmodium falciparum orotate phosphoribosyltransferase (PfOPRT) (Plasmodium falciparum, UniProt Q8N0R1); assay type: biochemical
[3] = molecular target: T1, human orotate phosphoribosyltransferase (HsOPRT), OPRT domain of UMP synthase; assay type: biochemical
steady-state kinetics = substrate: O=C(O)CP(=O)(O)O; assay: steady-state kinetics; assay type: biochemical, Plasmodium falciparum; conditions: Mg2+ ([…] MgCl2 in assay)
purified protein = substrate: O=C(O)c1cc(=O)[nH]c(=O)n1[C@@H]1O[C@H](COP(=O)(O)O)[C@@H](O)[C@H]1O; assay: purified protein; assay type: biochemical, Plasmodium falciparum; conditions: Mg2+ ([…] MgCl2 in assay); pH 8.0; 25.0 °C

Molecule: O=C(O)c1cc(=O)[nH]c(=O)n1[C@@H]1O[C@H](COP(=O)(O)O)[C@@H](O)[C@H]1O [orotidine 5′-monophosphate]
Km [1]: 1550 ± 610 nM

B1: Plasmodium falciparum orotate phosphoribosyltransferase (PfOPRT) (Plasmodium falciparum) (protein)
chain: MTTIKENEFLCDEEIYKSFVHLKDKICEERKKKELVNNNIDNVNFNDDDDNNYDDDGNSYSSYIKEMKKLLKVVLLKYKALKFGEFILKSKRKSNYFFSSGVLNNIVSSNIICFLLSELILKNKLSFDYLLGASYKGIPMVSLTSHFLFESKKYSNIFYLYDRKEKKEYGDKNVIVGNLDDDDKDILNLKKKTKNNQDEEKKNIIIIDDVFTCGTALTEILAKLKTYEHLKVVAFIVLLNRNEYEINENNQKIYFKDIFEKRVGIPLYSILSYKDDIQSMI
Km (steady-state kinetics): 1.59 mM
Km (purified protein): 3.73 ± 1.36 µM
kcat (purified protein): 1.96 ± 0.29 s⁻¹
kcat/Km (purified protein): 530000 M⁻¹ s⁻¹

More lines, now with the values ahead:

Ki [2]: 188 ± 40 nM
Ki [3]: 121 ± 30 nM
Molecule: O=[N+]([O-])c1ccc(O[C@@H]2O[C@H](CO)[C@@H](O)[C@H]2O)cc1 [p-nitrophenyl β-D-ribose]

Ki [2]: 40 ± 21 nM
Molecule: O=[N+]([O-])c1ccc(O[C@@H]2O[C@H](COP(=O)(O)O)[C@@H](O)[C@H]2O)cc1 [p-nitrophenyl β-D-ribose 5′-phosphate]
